Measurements taken from patent publication US7365231B2, “Compound with antitumor activity and preparation method therefor” (National Taiwan University of Science & Technology, priority 2005, dated 2008).
pIC50: −log10 of the molar value.

Assays:
Test in all cases: NCI panel growth inhibition, sulforhodamine B
Assay type in all cases: cell-based
SW-620 = settings: Homo sapiens; SW-620, Colon cancer; drug for last 48 h of 72 h
Description: (§1) Comparison of anticancer activities of the 1,3-substituted adamantane derivatives, 1,3-bis(4-aminophenyl)adamantane (1,3-DPANH2), 1,3-bis(4-(4-aminophenoxy)phenyl)adamantane (1,3-DPAONH2), 1,3-bis(4-(4-amino-3-hydroxy)phenyl)adamantane (1,3-DPA/OH/NH2) and 1,3-bis(4-(4-amino-2-trifluoromethylphenoxy)phenyl)adamantane (1,3-DPA/CF3/NH2) as shown in FIG. 1 were synthesized in the present invention. Those compounds were submitted to the National Cancer Institute for anticancer assay in culture against a standard panel of cell lines. […] To further confirm that the different substituents (CF3 and OH) on the phenyl ring of 1,3-DPAONH2 affect the growth inhibition of cancer cells. […] The transformations of 1,3-DPAONH2 to 1,3-DPA/OH/NH2 led to a remarked enhancement of anticancer activity toward all the tested cancer lines. The role of the OH group at the ortho position of the NH2 on growth inhibition is remarkable. In addition, one compound (1,3-DPA/OH/NH2) was confirmed to have an IC50 of <1 μM against one of the cells (BT-549 breast carcinoma). Comparison of anticancer activities of 1,3-substituted diaminophenyladamantane derivatives, the following order of potency against the tested cancer lines was observed: 1,3-DPA/OH/NH2>1,3-DPAONH2>1,3-DPANH2>1,3-DPA/CF3/NH2.

HL-60(TB) = settings: Homo sapiens, Leukemia, drug for last 48 h of 72 h
Description: as §1

SK-MEL-28 = settings: Homo sapiens; SK-MEL-28, Melanoma; drug for last 48 h of 72 h
Description: as §1

HOP-62 = settings: Homo sapiens; HOP-62, NSCLC; drug for last 48 h of 72 h
Description: as §1

ACHN = settings: Homo sapiens, Renal cancer, drug for last 48 h of 72 h
Description: as §1

IGROV1 = settings: Homo sapiens, IGROV-1; IGROV1, Ovarian cancer; drug for last 48 h of 72 h
Description: as §1

MCF-7 = settings: Homo sapiens, MCF7; MCF-7, Breast cancer; drug for last 48 h of 72 h
Description: as §1

UO-31 = settings: Homo sapiens; UO-31, Renal cancer; drug for last 48 h of 72 h
Description: as §1

SF-268 = settings: Homo sapiens; SF-268, CNS cancer; drug for last 48 h of 72 h
Description: as §1

MDA-N = settings: Homo sapiens, Breast cancer, drug for last 48 h of 72 h
Description: as §1

SNB-19 = settings: Homo sapiens; SNB-19, CNS cancer; drug for last 48 h of 72 h
Description: as §1

PC-3 = settings: Homo sapiens; PC-3, Prostate cancer; drug for last 48 h of 72 h
Description: as §1

TK-10 = settings: Homo sapiens; TK-10, Renal cancer; drug for last 48 h of 72 h
Description: as §1

OVCAR-5 = settings: Homo sapiens; OVCAR-5, Ovarian cancer; drug for last 48 h of 72 h
Description: as §1

SK-MEL-5 = settings: Homo sapiens; SK-MEL-5, Melanoma; drug for last 48 h of 72 h
Description: as §1

HCT-15 = settings: Homo sapiens; HCT-15, Colon cancer; drug for last 48 h of 72 h
Description: as §1

UACC-62 = settings: Homo sapiens; UACC-62, Melanoma; drug for last 48 h of 72 h
Description: as §1

NCI-H226 = settings: Homo sapiens; NCI-H226, NSCLC; drug for last 48 h of 72 h
Description: as §1

KM12 = settings: Homo sapiens, KM12, KM12, Colon cancer; drug for last 48 h of 72 h
Description: as §1

DU-145 = settings: Homo sapiens; DU-145, Prostate cancer; drug for last 48 h of 72 h
Description: as §1

MDA-MB-435 = settings: Homo sapiens; MDA-MB-435, Breast cancer; drug for last 48 h of 72 h
Description: as §1

EKVX = settings: Homo sapiens, NSCLC, drug for last 48 h of 72 h
Description: as §1

A549/ATCC = settings: Homo sapiens, NSCLC, drug for last 48 h of 72 h
Description: as §1

CCRF-CEM = settings: Homo sapiens, Leukemia, drug for last 48 h of 72 h
Description: as §1

OVCAR-4 = settings: Homo sapiens; OVCAR-4, Ovarian cancer; drug for last 48 h of 72 h
Description: as §1

CAKI-1 = settings: Homo sapiens; CAKI-1, Renal cancer; drug for last 48 h of 72 h
Description: as §1

M14 = settings: Homo sapiens; M14, Melanoma; drug for last 48 h of 72 h
Description: as §1

U251 = settings: Homo sapiens, U-251; U251, CNS cancer; drug for last 48 h of 72 h
Description: as §1

NCI-H23 = settings: Homo sapiens; NCI-H23, NSCLC; drug for last 48 h of 72 h
Description: as §1

LOX IMVI = settings: Homo sapiens, Melanoma, drug for last 48 h of 72 h
Description: as §1

Row | SMILES | pIC50 (SW-620) | pIC50 (HL-60(TB)) | pIC50 (SK-MEL-28) | pIC50 (HOP-62) | pIC50 (ACHN) | pIC50 (IGROV1) | pIC50 (MCF-7) | pIC50 (UO-31) | pIC50 (SF-268) | pIC50 (MDA-N) | pIC50 (SNB-19) | pIC50 (TK-10) | pIC50 (HCT-15) | pIC50 (UACC-62) | pIC50 (NCI-H226) | pIC50 (EKVX) | pIC50 (OVCAR-4) | pIC50 (CAKI-1) | pIC50 (M14) | pIC50 (U251) | further results
1 | Nc1ccc(Oc2ccc(C34CC5CC(C3)CC(c3ccc(Oc6ccc(N)cc6C(F)(F)F)cc3)(C5)C4)cc2)c(C(F)(F)F)c1 [1,3-DPA/CF3/NH2, 1,3-bis-(4-(4-amino-2-trifluoromethylphenoxy)phenyl)adamantane] | 4.44 | 4.62 | 4.36 | 4.74 | 4.48 | 4.71 | 4.87 | 4.41 | 4.76 | 4.44 | 4.65 | 4.79 | 4.50 | 4.66 | 4.71 | 4.81 | 4.44 | 4.55 | 4.77 | 4.84 | pIC50 (PC-3): 4.83; pIC50 (OVCAR-5): 4.57; pIC50 (SK-MEL-5): 4.66; pIC50 (KM12): 4.68; pIC50 (DU-145): 4.45; pIC50 (MDA-MB-435): 4.62; pIC50 (A549/ATCC): 4.72; pIC50 (CCRF-CEM): 4.44; pIC50 (NCI-H23): 4.75; pIC50 (LOX IMVI): 4.75
2 | Nc1ccc(Oc2ccc(C34CC5CC(C3)CC(c3ccc(Oc6ccc(N)c(O)c6)cc3)(C5)C4)cc2)cc1O [1,3-DPA/OH/NH2, 1,3-bis-(4-(4-amino-3-hydroxyphenoxy)phenyl)adamantane] | 5.54 | 5.67 | 5.56 | 5.26 | 5.79 | 5.86 | 5.73 | 5.71 | 5.94 | 5.80 | 5.88 | 5.25 | 5.75 | 5.58 | 5.30 | 5.77 | 5.69 | 5.74 | 5.80 | 5.89 | pIC50 (PC-3): 5.71; pIC50 (SK-MEL-5): 5.73; pIC50 (KM12): 5.76; pIC50 (DU-145): 5.76; pIC50 (MDA-MB-435): 5.72; pIC50 (A549/ATCC): 5.82; pIC50 (NCI-H23): 5.73; pIC50 (LOX IMVI): 5.79
3 | Nc1ccc(C23CC4CC(C2)CC(c2ccc(N)cc2)(C4)C3)cc1 [1,3-DPANH2, 1,3-bis(4-aminophenyl)adamantane] | 5.50 | 4.51 | 4.82 | 4.22 | 4.39 | < 4.00 | 4.50 | 5.31 | 4.34 | 4.42 | 4.42 | < 4.00 | 4.84 | 4.54 | 4.94 | 4.44 | 4.99 | < 4.00 | 4.43 | 4.84 | pIC50 (OVCAR-5): 4.56; pIC50 (SK-MEL-5): 4.88; pIC50 (KM12): < 4.00; pIC50 (DU-145): 4.29; pIC50 (A549/ATCC): < 4.00; pIC50 (CCRF-CEM): 4.80; pIC50 (NCI-H23): 4.22; pIC50 (LOX IMVI): < 4.00
4 | Nc1ccc(Oc2ccc(C34CC5CC(C3)CC(c3ccc(Oc6ccc(N)cc6)cc3)(C5)C4)cc2)cc1 [1,3-DPAONH2, 1,3-bis(4-(4-aminophenoxy)phenyl)adamantane] | 5.19 | 4.77 | 4.73 | 4.97 | 4.93 | 5.58 | 5.54 | 4.87 | 5.25 | 5.36 | 5.06 | 4.60 | 5.30 | 5.02 | 4.63 | 4.81 | 5.16 | 4.92 | 5.02 | 5.10 | pIC50 (PC-3): 4.94; pIC50 (OVCAR-5): 4.72; pIC50 (SK-MEL-5): 4.86; pIC50 (KM12): 5.39; pIC50 (DU-145): 5.19; pIC50 (MDA-MB-435): 5.28; pIC50 (A549/ATCC): 4.99; pIC50 (CCRF-CEM): 5.32; pIC50 (NCI-H23): 5.16; pIC50 (LOX IMVI): 5.61
5 | Nc1ccc(C2(c3ccc(N)cc3)C3CC4CC(C3)CC2C4)cc1 [2,2-DPANH2, 2,2-bis(4-aminophenyl)adamantane] | 4.94 | 4.72 | 4.83 | 4.87 | 4.73 | 5.02 | 4.71 | 4.74 | 5.80 | 4.73 | 4.84 | 4.74 | 4.66 | 4.79 | 4.91 | 4.79 | 4.84 | 4.82 | 4.83 | 4.73 | pIC50 (PC-3): 4.83; pIC50 (OVCAR-5): 4.80; pIC50 (MDA-MB-435): 4.83; pIC50 (CCRF-CEM): 5.42; pIC50 (NCI-H23): 4.70; pIC50 (LOX IMVI): 4.79
6 | Nc1ccc(Oc2ccc(C3(c4ccc(Oc5ccc(N)cc5)cc4)C4CC5CC(C4)CC3C5)cc2)cc1 [2,2-DPAONH2, 2,2-bis(4-(4-aminophenoxy)phenyl)adamantane] | 5.30 | 5.30 | 4.98 | 4.93 | 4.87 | 5.23 | 5.42 | 5.52 | 5.19 | 5.56 | 5.00 | 4.84 | 5.31 | 4.75 | 4.67 | 5.32 | 5.16 | 4.95 | 5.64 | 5.55 | pIC50 (PC-3): 5.17; pIC50 (OVCAR-5): 4.82; pIC50 (SK-MEL-5): 5.08; pIC50 (KM12): 5.45; pIC50 (DU-145): 5.48; pIC50 (MDA-MB-435): 5.22; pIC50 (A549/ATCC): 5.47; pIC50 (CCRF-CEM): 5.52; pIC50 (NCI-H23): 5.29; pIC50 (LOX IMVI): 5.56
